Experiments:
Assay type in all cases: biochemical
BTK = BTK (Homo sapiens, UniProt Q06187); assay: Kinome profiling BTK; details: read-out: Inhibitory activity BTK; for inhibition at 0.1 µM: 100 nM
Experimental: (§1) . The kinome-wide selectivity was determined following the methods previously reported by Mohedas et al., ACS Chem Biol 2013, 8, 1291-1302 and Sanvitale et al., PLoS One 2013, 8, e62721.

MST1 = biological target: T1, MST1 (Homo sapiens, UniProt Q13043); assay: Kinome profiling MST1; details: read-out: Inhibitory activity MST1; for inhibition at 0.1 µM: 100 nM
T1 sequence (Q13043 1-487): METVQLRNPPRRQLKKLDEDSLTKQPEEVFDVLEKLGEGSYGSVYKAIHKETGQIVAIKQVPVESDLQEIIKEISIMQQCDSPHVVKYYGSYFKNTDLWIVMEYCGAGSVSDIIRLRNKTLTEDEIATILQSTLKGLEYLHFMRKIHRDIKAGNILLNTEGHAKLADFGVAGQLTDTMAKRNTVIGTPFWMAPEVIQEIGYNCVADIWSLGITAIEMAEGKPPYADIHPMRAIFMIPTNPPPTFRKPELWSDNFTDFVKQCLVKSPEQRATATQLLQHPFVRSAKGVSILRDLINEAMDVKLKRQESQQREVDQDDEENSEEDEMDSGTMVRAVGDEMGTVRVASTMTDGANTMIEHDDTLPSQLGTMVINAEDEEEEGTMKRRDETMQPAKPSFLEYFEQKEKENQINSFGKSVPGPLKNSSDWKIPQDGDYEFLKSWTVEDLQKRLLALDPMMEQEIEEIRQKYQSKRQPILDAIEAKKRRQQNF
Experimental: as §1

BRSK2 = biological target: T2, BRSK2 (Homo sapiens, UniProt Q8IWQ3); assay: Kinome profiling BRSK2; details: read-out: Inhibitory activity BRSK2; for inhibition at 0.1 µM: 100 nM
T2 sequence (Q8IWQ3 1-736): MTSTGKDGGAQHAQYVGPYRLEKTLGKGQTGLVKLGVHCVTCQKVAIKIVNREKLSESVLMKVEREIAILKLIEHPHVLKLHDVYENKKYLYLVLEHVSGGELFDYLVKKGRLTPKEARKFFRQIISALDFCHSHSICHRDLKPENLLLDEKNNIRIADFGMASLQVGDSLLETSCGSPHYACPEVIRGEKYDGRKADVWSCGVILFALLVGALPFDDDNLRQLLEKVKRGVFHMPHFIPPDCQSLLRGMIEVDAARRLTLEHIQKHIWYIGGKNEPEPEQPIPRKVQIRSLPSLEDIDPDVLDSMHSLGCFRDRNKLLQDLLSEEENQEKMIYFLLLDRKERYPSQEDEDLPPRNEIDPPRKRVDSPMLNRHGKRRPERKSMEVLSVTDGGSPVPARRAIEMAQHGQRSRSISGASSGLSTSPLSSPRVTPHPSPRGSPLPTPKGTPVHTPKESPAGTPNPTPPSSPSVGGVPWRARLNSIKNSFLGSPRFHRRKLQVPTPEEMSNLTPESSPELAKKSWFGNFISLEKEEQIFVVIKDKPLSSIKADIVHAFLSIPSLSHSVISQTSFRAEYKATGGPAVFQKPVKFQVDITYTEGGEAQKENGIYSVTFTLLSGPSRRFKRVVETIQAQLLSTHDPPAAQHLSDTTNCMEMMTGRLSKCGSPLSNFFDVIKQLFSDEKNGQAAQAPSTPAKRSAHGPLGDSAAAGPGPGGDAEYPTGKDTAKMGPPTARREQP
Experimental: as §1

ITK = biological target: T3, ITK (Homo sapiens, UniProt Q08881); assay: Kinome profiling ITK; details: read-out: Inhibitory activity ITK; for inhibition at 0.1 µM: 100 nM
T3 sequence (Q08881 1-620): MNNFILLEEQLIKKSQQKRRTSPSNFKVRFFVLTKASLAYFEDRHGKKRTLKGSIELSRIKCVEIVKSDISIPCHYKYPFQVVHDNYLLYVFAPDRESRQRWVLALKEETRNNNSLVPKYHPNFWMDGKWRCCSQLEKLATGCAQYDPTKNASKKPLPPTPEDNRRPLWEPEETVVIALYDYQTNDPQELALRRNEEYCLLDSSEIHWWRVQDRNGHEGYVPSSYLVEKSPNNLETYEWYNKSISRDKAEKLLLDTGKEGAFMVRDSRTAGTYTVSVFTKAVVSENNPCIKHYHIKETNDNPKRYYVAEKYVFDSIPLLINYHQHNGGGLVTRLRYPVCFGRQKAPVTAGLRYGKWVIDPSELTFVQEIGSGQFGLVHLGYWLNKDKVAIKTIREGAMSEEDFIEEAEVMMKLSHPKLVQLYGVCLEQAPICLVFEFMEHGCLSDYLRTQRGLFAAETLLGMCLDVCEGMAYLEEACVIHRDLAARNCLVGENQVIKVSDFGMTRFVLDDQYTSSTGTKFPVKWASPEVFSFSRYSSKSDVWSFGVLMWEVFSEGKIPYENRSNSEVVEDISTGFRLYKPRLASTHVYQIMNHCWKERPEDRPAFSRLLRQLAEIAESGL
Experimental: as §1

Chain of BTK (Q06187 whole entry): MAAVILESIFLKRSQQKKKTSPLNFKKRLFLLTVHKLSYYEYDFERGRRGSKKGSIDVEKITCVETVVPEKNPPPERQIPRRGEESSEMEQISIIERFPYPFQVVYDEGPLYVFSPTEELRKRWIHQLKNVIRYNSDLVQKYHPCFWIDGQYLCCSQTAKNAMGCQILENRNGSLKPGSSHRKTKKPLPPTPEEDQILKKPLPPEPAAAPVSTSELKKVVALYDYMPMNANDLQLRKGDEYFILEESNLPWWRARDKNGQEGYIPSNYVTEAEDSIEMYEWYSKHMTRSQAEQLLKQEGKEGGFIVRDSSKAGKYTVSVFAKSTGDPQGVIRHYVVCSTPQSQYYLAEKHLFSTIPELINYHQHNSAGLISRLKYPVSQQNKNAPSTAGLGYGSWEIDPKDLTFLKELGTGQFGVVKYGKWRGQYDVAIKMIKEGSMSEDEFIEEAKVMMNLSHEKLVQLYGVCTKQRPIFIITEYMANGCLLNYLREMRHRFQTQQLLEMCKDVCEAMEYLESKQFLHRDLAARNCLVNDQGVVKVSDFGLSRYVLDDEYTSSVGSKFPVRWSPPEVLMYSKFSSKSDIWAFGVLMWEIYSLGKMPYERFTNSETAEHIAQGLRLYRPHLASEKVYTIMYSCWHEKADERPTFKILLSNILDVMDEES

Compound | inhibition at 0.1 µM (BTK) [%] | inhibition at 1 µM (BTK) [%] | inhibition at 0.1 µM (MST1) [%] | inhibition at 1 µM (MST1) [%] | inhibition at 0.1 µM (BRSK2) [%] | inhibition at 1 µM (BRSK2) [%] | inhibition at 0.1 µM (ITK) [%] | inhibition at 1 µM (ITK) [%]
COc1cc(-c2cc(-c3ccc(N4CCNCC4)cc3)cnc2C)cc(OC)c1OC [Compound 10, 1-(4-(6-methyl-5-(3,4,5-trimethoxyphenyl)pyridin-3-yl)phenyl)piperazine] | 1 | -2 | 3 | 3 | 2 | 1 | 0 | -1
COc1cc(-c2cc(-c3ccc(N4CCNCC4)cc3)cnc2N)cc(OC)c1OC [Compound 15, 5-(4-(piperazin-1-yl)phenyl)-3-(3,4,5-trimethoxyphenyl)pyridin-2-amine] | 3 | 20 | 3 | 10 | 1 | 2 | 0 | 2
